ChEMBL document CHEMBL4043078, “Biological evaluation of pyridone alkaloids on the endocannabinoid system” (Bioorg Med Chem, 2017)
The source made the active and inactive calls. No cut-off for these calls is given here.

Assays:
[1] = molecular target: T1, Fatty-acid amide hydrolase 1 (Homo sapiens) (UniProt O00519); assay: Inhibition of FAAH in human U937 cells assessed as decrease in [ethanolamine-1-3H]AEA uptake at 10 uM preincubated for 2 mins followed by AEA addition after 5 mins by liquid scintillation counting method; assay type: cell-based
T1 sequence (whole entry): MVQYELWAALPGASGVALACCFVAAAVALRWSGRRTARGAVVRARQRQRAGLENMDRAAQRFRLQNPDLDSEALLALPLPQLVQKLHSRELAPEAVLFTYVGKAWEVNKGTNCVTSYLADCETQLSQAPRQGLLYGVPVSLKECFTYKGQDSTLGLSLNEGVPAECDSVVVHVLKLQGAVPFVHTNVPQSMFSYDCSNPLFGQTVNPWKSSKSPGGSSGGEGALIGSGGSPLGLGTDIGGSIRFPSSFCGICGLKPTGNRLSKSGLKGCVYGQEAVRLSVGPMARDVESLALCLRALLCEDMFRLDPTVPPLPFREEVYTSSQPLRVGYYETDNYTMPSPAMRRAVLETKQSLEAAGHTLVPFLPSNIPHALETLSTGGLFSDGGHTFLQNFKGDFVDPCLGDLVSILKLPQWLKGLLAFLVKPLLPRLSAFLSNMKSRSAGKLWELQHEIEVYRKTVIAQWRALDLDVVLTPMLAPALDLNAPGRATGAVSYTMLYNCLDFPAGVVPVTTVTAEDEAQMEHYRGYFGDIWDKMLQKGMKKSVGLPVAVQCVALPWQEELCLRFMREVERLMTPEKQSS

Cannabinoid receptor 1 [2] = molecular target: T2, Cannabinoid receptor 1 (Homo sapiens, UniProt P21554); assay: Displacement of [3H]CP55,940 from human CB1 receptor expressed in CHOK1 cell membranes at 1 uM after 2 hrs by liquid scintillation counting method relative to control
T2 sequence (P21554 whole entry): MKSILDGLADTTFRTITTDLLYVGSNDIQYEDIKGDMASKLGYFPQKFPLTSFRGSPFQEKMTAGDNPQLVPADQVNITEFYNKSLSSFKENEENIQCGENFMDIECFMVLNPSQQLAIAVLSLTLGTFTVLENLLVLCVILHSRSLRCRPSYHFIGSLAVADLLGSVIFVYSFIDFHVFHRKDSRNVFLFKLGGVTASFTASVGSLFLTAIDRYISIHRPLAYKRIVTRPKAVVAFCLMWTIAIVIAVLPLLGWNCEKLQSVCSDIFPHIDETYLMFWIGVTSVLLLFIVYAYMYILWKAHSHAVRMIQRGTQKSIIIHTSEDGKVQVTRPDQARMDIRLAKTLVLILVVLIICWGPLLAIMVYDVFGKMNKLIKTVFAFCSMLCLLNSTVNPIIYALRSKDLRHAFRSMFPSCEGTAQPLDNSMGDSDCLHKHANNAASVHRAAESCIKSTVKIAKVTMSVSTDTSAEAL

[3] = molecular target: T3, Monoacylglycerol lipase ABHD6 (Mus musculus) (UniProt Q8R2Y0); assay: Inhibition of ABHD6 in mouse BV2 cells preincubated for 30 mins and subsequent addition of [3H]-2-OG substrate measured after 15 mins by liquid scintillation counting method; assay type: cell-based
T3 sequence (whole entry): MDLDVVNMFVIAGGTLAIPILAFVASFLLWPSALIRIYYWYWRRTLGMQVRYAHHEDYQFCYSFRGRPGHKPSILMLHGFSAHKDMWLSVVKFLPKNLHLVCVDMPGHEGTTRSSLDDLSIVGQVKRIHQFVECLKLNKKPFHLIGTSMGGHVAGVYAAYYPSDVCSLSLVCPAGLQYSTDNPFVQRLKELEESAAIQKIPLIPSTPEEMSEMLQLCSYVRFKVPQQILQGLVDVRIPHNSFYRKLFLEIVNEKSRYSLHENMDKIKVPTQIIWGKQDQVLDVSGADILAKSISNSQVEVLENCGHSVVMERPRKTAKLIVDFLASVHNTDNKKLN

[4] = molecular target: T4, Lysophosphatidylserine lipase ABHD12 (Mus musculus) (UniProt Q99LR1); assay: Inhibition of ABHD12 in mouse BV2 cells preincubated for 30 mins and subsequent addition of [3H]-2-OG substrate measured after 15 mins by liquid scintillation counting method; assay type: cell-based
T4 sequence (whole entry): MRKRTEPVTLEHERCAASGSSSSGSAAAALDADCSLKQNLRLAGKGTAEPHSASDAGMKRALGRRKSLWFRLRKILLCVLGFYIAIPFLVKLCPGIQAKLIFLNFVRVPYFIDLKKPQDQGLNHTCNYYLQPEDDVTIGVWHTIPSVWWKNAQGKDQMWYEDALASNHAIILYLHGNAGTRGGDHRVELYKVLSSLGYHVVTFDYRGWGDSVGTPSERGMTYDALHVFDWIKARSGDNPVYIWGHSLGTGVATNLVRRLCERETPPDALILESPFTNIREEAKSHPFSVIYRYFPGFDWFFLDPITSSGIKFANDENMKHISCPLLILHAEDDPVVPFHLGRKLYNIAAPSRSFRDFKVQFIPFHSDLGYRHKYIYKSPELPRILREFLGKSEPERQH

Cannabinoid receptor 2 [5] = molecular target: T5, Cannabinoid receptor 2 (Homo sapiens, UniProt P34972); assay: Displacement of [3H]CP55,940 from human CB2 receptor expressed in CHOK1 cell membranes at 1 uM after 2 hrs by liquid scintillation counting method relative to control
T5 sequence (P34972 whole entry): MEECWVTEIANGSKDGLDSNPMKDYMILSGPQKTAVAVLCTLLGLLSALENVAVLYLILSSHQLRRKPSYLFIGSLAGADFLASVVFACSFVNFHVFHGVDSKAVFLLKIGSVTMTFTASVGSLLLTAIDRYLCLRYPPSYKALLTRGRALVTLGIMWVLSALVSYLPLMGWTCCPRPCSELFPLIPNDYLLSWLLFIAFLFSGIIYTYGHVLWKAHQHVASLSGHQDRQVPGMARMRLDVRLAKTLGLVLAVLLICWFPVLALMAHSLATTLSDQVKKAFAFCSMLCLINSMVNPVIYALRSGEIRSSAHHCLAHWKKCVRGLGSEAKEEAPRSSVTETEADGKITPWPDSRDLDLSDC

Sus scrofa = species: Sus scrofa; assay: Inhibition of MAGL in pig brain homogenates using [3H]2-OG as substrate at 10 uM after 15 mins in presence of URB597 by liquid scintillation counting method; assay type: tissue-based
[6] = molecular target: T1, Fatty-acid amide hydrolase 1 (Homo sapiens); assay: Inhibition of FAAH in human U937 cells using [ethanolamine-1-3H]AEA as substrate at 10 uM after 15 mins by liquid scintillation counting method relative to control; assay type: cell-based
Cannabinoid receptor 1 [7] = molecular target: T2, Cannabinoid receptor 1; assay: Displacement of [3H]CP55,940 from human CB1 receptor expressed in CHOK1 cell membranes after 2 hrs by liquid scintillation counting method
[8] = molecular target: T6, Fatty-acid amide hydrolase 1 (Homo sapiens, UniProt O00519); assay: Inhibition of FAAH in human U937 cells assessed as decrease in [ethanolamine-1-3H]AEA uptake preincubated for 2 mins followed by AEA addition after 5 mins by liquid scintillation counting method; assay type: cell-based
T6 sequence (O00519 whole entry): T1 sequence (whole entry)

[9] = Inhibition of MAGL in pig brain homogenates using [3H]2-OG as substrate after 15 mins by liquid scintillation counting method; assay type: tissue-based, Sus scrofa
[10] = molecular target: T7, Prostaglandin G/H synthase 2 (Homo sapiens, UniProt P35354); assay: Inhibition of recombinant human COX2 preincubated for 15 mins followed by arachidonic acid/2-OG substrate addition after 5 mins by ADHP probe-based fluorescence assay
T7 sequence (P35354 whole entry): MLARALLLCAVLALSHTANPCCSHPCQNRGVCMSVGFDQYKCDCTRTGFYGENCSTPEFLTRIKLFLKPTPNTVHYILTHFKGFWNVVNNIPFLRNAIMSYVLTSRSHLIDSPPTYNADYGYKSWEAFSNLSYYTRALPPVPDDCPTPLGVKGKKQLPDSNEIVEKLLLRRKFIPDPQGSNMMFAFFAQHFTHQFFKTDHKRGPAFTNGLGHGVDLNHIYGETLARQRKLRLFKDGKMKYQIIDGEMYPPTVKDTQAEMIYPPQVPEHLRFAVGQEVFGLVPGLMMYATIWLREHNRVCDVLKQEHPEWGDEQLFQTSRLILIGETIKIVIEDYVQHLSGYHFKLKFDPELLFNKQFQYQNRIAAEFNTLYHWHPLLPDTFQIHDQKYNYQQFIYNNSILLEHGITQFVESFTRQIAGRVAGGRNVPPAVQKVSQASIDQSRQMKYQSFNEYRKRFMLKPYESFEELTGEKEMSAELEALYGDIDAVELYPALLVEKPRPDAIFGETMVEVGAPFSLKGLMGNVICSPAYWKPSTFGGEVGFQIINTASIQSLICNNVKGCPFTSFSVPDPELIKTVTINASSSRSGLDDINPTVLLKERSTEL

Cannabinoid receptor 2 [11] = molecular target: T5, Cannabinoid receptor 2; assay: Displacement of [3H]CP55,940 from human CB2 receptor expressed in CHOK1 cell membranes after 2 hrs by liquid scintillation counting method
[12] = molecular target: T6, Fatty-acid amide hydrolase 1; assay: Inhibition of FAAH in human U937 cells using [ethanolamine-1-3H]AEA as substrate after 15 mins by liquid scintillation counting method; assay type: cell-based

SMILES	inhibition [1]	inhibition (Cannabinoid receptor 1 [2])	inhibition [3]	inhibition [4]	inhibition (Cannabinoid receptor 2 [5])	inhibition (Sus scrofa)	inhibition [6]	Ki (Cannabinoid receptor 1 [7])	IC50 [8]	IC50 [9]	IC50 [10]	Ki (Cannabinoid receptor 2 [11])	IC50 [12]
CCC(C)CC(C)/C=C(C)/C=C/C=C/C(=O)c1c(O)c(-c2ccc(O)cc2)c[nH]c1=O (stereo not given)	Active	< 20%	inactive	inactive	< 20%	inactive	40 to 50%						
CCCCCCCCCCCC(=O)c1c(O)c(-c2ccc(O)cc2)c[nH]c1=O	Active	50%	inactive	inactive	inactive	inactive	40 to 50%	1000 nM	800 nM	> 10000 nM	> 10000 nM	> 1000 nM	4600 nM
CCC(C)/C=C(C)/C=C/C=C/C(=O)c1c(OC)c(-c2ccc(O)cc2)c[nH]c1=O (stereo not given)	Active	< 20%	inactive	inactive	< 20%	inactive							
CCC(/C=C/C=C/C=C/C(=O)c1c(O)c(-c2ccc(O)cc2)c[nH]c1=O)CO (stereo not given)	inactive	< 20%	inactive	inactive	< 20%	inactive							
C=CCCCOC(=O)c1c(O)c(-c2ccc(O)cc2)c[nH]c1=O	inactive	< 20%	inactive	inactive	< 20%	inactive							
CCC(C)CC(C)/C=C(C)/C=C/C(=O)c1c(O)c(-c2ccc(O)cc2)c[nH]c1=O (stereo not given)	inactive	40%	inactive	inactive		inactive							
CC[C@@H](C)/C=C(C)/C=C/C(=O)c1c(O)c(-c2ccc(O)cc2)c[nH]c1=O	Active	40%	inactive	inactive		inactive							
CCC(/C=C(C)/C=C/C(=O)c1c(O)c(-c2ccc(O)cc2)c[nH]c1=O)CO (stereo not given)	inactive	< 20%	inactive	inactive	< 20%	inactive							
CCCCCCCCCCCCCCCCCC(=O)c1c(O)c(-c2ccc(O)cc2)c[nH]c1=O	inactive	< 20%	inactive	inactive	< 20%	inactive		> 1000 nM	> 10000 nM	> 10000 nM	> 10000 nM	> 1000 nM	> 10000 nM
CN(Cc1cccc(-c2ccncc2)c1)C(=O)Oc1ccc(-c2ccc(C(N)=O)cc2)cc1			Active	Active									
CCCCCCCC(=O)c1c(O)c(-c2ccc(O)cc2)c[nH]c1=O	Active	< 20%	inactive	inactive	< 20%	inactive	80%	> 1000 nM	700 nM	> 10000 nM	> 10000 nM	> 1000 nM	> 10000 nM
CCC(C)/C=C(C)/C=C/C=C/C(=O)c1c(O)c(-c2ccc(O)cc2)c[nH]c1=O (stereo not given)	inactive	< 20%	inactive	inactive	< 20%	inactive							
CCCCCCCCCCOC(=O)c1c(O)c(-c2ccc(O)cc2)c[nH]c1=O	Active	< 20%	inactive	inactive	< 20%	inactive	40 to 50%	> 1000 nM	600 nM	> 10000 nM	> 10000 nM	> 1000 nM	> 10000 nM
NC(=O)c1cccc(-c2cccc(OC(=O)NC3CCCCC3)c2)c1			inactive	inactive		inactive							
O=C(Oc1ccc([N+](=O)[O-])cc1)N1CCC(C(O)(c2ccc3c(c2)OCO3)c2ccc3c(c2)OCO3)CC1			inactive	inactive		inactive							
CCCCCCCCCCC[C@@H](C[C@@H]1OC(=O)[C@H]1CCCCCC)OC(=O)[C@H](CC(C)C)NC=O			Active	Active									
CCC(C)/C=C(C)/C=C/C=C/C=C/C(=O)c1c(O)c(-c2ccc(O)cc2)c[nH]c1=O (stereo not given) [FARINOSONE A]	Active	< 20%	inactive	inactive	< 20%	inactive		> 1000 nM	1200 nM	> 10000 nM	> 10000 nM	> 1000 nM	> 10000 nM
